We go through 15 compounds from patent US20230391760A1, “HETEROCYCLIC GLP-1 AGONISTS” (Gasherbrum Bio, Inc., priority 2020, published 2023).

pEC50: −log10 of the molar value.

The experiment addresses GLP-1 Receptor (Homo sapiens, UniProt P43220). The experiment is described as follows: GLP-1R agonist cAMP stimulation assay (HEK293/GLP1R/CRE-LUC cells, cAMP dynamic 2 Kit). It counts as cell-based. The conditions noted are these: HEK293/CRE-Luc cell line stably expressing the GLP-1 Receptor, 30 min at 37° C. In outline:
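HEK293 cells stably expressing human GLP-1R with CRE-luciferase, 1000 cells/well in DPBS with 0.5 mM IBMX and 0.1% BSA, treated with compound in 1/2-log serial dilution for 30 min at 37 °C. cAMP then detected by HTRF (cAMP-d2 plus anti-cAMP cryptate), 1 h at room temperature in the dark.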

Chain of GLP-1 Receptor (P43220 24-463, species assumed): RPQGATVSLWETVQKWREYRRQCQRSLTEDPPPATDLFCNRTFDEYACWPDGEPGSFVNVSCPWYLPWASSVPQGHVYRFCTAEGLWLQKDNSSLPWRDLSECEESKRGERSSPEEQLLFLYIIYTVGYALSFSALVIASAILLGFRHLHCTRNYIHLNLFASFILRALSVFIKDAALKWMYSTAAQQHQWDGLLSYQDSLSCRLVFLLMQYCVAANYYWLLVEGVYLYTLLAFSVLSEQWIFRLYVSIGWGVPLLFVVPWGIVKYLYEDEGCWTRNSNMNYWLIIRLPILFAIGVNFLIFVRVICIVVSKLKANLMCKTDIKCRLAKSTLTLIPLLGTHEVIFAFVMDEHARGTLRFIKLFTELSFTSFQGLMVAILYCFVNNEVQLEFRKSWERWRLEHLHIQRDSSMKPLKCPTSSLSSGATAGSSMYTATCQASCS

By pEC50 is commonly meant the EC50 on a negative log10 scale, so that one unit is a factor of ten. As for `Fc1cc(Cl)ccc1COc1nc(C2CCN(Cc3nc4cc(-c5nnc(C(F)(F)F)[nH]5)ncc4n3C[C@@H]3CCO3)CC2F)ccc1F` (stereo partly drawn) [Compound 515a, 2-[(4-chloro-2-fluorophenyl)methoxy]-3-fluoro-6-[(3,4-trans)-3-fluoro-1-[(3-{[(2S)-oxetan-2-yl]methyl}-6-[5-(trifluoromethyl)-4H-1,2,4-triazol-3-yl]-3H-imidazo[4,5-c]pyridin-2-yl)methyl]piperidin-4-yl]pyridine], the pEC50 is 10.24.

Take `CC1(c2ccc(C#N)cc2F)Oc2cccc(C3CCN(Cc4nc5cc(-c6nnc(C(F)(F)F)[nH]6)cnc5n4C[C@@H]4CCO4)CC3)c2O1` (stereo partly drawn) [Compound 403a, 3-fluoro-4-(2-methyl-4-{1-[(3-{[(2S)-oxetan-2-yl]methyl}-6-[5-(trifluoromethyl)-4H-1,2,4-triazol-3-yl]-3H-imidazo[4,5-b]pyridin-2-yl)methyl]piperidin-4-yl}-2H-1,3-benzodioxol-2-yl)benzonitrile]: the negative-log EC50 (pEC50) is 10.70.

Compound `C[C@]1(c2ccc(Cl)cc2F)Oc2cccc(C3CCN(Cc4nc5cc(-c6nnc(C(F)(F)F)[nH]6)ncc5n4C[C@@H]4CCCO4)CC3)c2O1` [Compound 426a, 4-[(2S)-2-(4-chloro-2-fluorophenyl)-2-methyl-2H-1,3-benzodioxol-4-yl]-1-[(3-{[(2S)-oxolan-2-yl]methyl}-6-[5-(trifluoromethyl)-4H-1,2,4-triazol-3-yl]-3H-imidazo[4,5-c]pyridin-2-yl)methyl]piperidine] gave a negative logarithm of the EC50 (pEC50) of 10.06.

Regarding `CC1(c2ccc(Cl)cc2)Oc2cccc(C3=CCN(Cc4nc5cc(-c6nnc(C(F)(F)F)[nH]6)ccc5n4CC4(C#N)CC4)CC3)c2O1` (stereo not drawn) [Compound 413, 1-{[2-({4-[2-(4-chlorophenyl)-2-methyl-2H-1,3-benzodioxol-4-yl]-1,2,3,6-tetrahydropyridin-1-yl}methyl)-5-[5-(trifluoromethyl)-4H-1,2,4-triazol-3-yl]-1H-1,3-benzodiazol-1-yl]methyl}cyclopropane-1-carbonitrile], the pEC50 was 9.22.

The compound `N#Cc1ccc(COc2cccc(C3=CCN(Cc4nc5cc(-c6noc(=O)[nH]6)cnc5n4C[C@@H]4CCO4)CC3)n2)c(F)c1` [Compound 322a, 3-fluoro-4-[({1′-[(3-{[(2S)-oxetan-2-yl]methyl}-6-(5-oxo-4,5-dihydro-1,2,4-oxadiazol-3-yl)-3H-imidazo[4,5-b]pyridin-2-yl)methyl]-1′,2′,3′,6′-tetrahydro-[2,4′-bipyridin]-6-yl}oxy)methyl]benzonitrile] gave a negative-log EC50 (pEC50) of 10.11.

The compound `CC1(c2ccc(Cl)nc2)Oc2cccc(C3CCN(Cc4nc5cc(-c6nnc(C(F)(F)F)[nH]6)ncc5n4C[C@@H]4CCO4)CC3)c2O1` (stereo partly drawn) [Compound 467a, 2-chloro-5-(2-methyl-4-{1-[(3-{[(2S)-oxetan-2-yl]methyl}-6-[5-(trifluoromethyl)-4H-1,2,4-triazol-3-yl]-3H-imidazo[4,5-c]pyridin-2-yl)methyl]piperidin-4-yl}-2H-1,3-benzodioxol-2-yl)pyridine] gave a pEC50 of 10.12.

In turn, `CC1(c2ccc(Cl)cc2F)Oc2cc(F)cc(C3CCN(Cc4nc5cc(-c6nnc(C(F)(F)F)[nH]6)ncc5n4C[C@@H]4CCO4)CC3)c2O1` (stereo partly drawn) [Compound 441a, 4-[2-(4-chloro-2-fluorophenyl)-6-fluoro-2-methyl-2H-1,3-benzodioxol-4-yl]-1-[(3-{[(2S)-oxetan-2-yl]methyl}-6-[5-(trifluoromethyl)-4H-1,2,4-triazol-3-yl]-3H-imidazo[4,5-c]pyridin-2-yl)methyl]piperidine] gave a pEC50 of 10.60.

Regarding `O=C(Nc1ccc2c(c1)nc(CN1CCC(c3cccc(OCc4ccc(Cl)cc4F)n3)CC1)n2C[C@@H]1CCO1)C1COC1` [Compound 104a, (S)—N-(2-((4-(6-((4-chloro-2-fluorobenzyl)oxy)pyridin-2-yl)piperidin-1-yl)methyl)-1-(oxetan-2-ylmethyl)-1H-benzo[d]imidazol-5-yl)oxetane-3-carboxamide], the negative logarithm of the EC50 (pEC50) is 9.68.

Compound `N#Cc1ccc(COc2cccc(C3=CCN(Cc4nc5cc(-c6noc(=O)[nH]6)cnc5n4C[C@@H]4CCO4)CC3)c2)c(F)c1` [Compound 318a, 3-fluoro-4-[(3-{1-[(3-{[(2S)-oxetan-2-yl]methyl}-6-(5-oxo-4,5-dihydro-1,2,4-oxadiazol-3-yl)-3H-imidazo[4,5-b]pyridin-2-yl)methyl]-1,2,3,6-tetrahydropyridin-4-yl}phenoxy)methyl]benzonitrile] gave a pEC50 of 8.00.

Turning to `CC1(c2ccc(Cl)cc2F)Oc2cccc(C3=CCN(Cc4nc5cc(-c6nnc(C(F)(F)F)[nH]6)ccc5n4C[C@@H]4CCO4)CC3)c2O1` (stereo partly drawn) [Compound 256a, 2-({4-[2-(4-chloro-2-fluorophenyl)-2-methyl-2H-1,3-benzodioxol-4-yl]-1,2,3,6-tetrahydropyridin-1-yl}methyl)-1-{[(2S)-oxetan-2-yl]methyl}-5-[5-(trifluoromethyl)-4H-1,2,4-triazol-3-yl]-1H-1,3-benzodiazole], the pEC50 is 9.64.

Regarding `CO[C@H](C)Cn1c(CN2CCC(c3cccc4c3O[C@@](C)(c3ccc(Cl)cn3)O4)CC2)nc2cc(-c3nnc(C(F)(F)F)[nH]3)ncc21` [Compound 455a, 5-chloro-2-[(2S)-4-[1-({3-[(2R)-2-methoxypropyl]-6-[5-(trifluoromethyl)-4H-1,2,4-triazol-3-yl]-3H-imidazo[4,5-c]pyridin-2-yl}methyl)piperidin-4-yl]-2-methyl-2H-1,3-benzodioxol-2-yl]pyridine], the pEC50 was 9.92.

Take `C[C@H]1CN(c2ccc(F)c(OCc3ccc(C#N)cc3F)c2)CCN1Cc1nc2cc(-c3nnc(C(F)(F)F)[nH]3)ncc2n1C[C@@H]1CCO1` [Compound 506a, 3-fluoro-4-({2-fluoro-5-[(3S)-3-methyl-4-[(3-{[(2S)-oxetan-2-yl]methyl}-6-[5-(trifluoromethyl)-4H-1,2,4-triazol-3-yl]-3H-imidazo[4,5-c]pyridin-2-yl)methyl]piperazin-1-yl]phenoxy}methyl)benzonitrile]: the pEC50 is 10.12.

Compound `CC1(c2ccc(Cl)cc2F)Oc2cccc(C3CCN(Cc4nc5cc(-c6nc(Br)ns6)ccc5n4C[C@@H]4CCO4)CC3)c2O1` (stereo partly drawn) [Compound 409a, 5-(3-bromo-1,2,4-thiadiazol-5-yl)-2-({4-[2-(4-chloro-2-fluorophenyl)-2-methyl-2H-1,3-benzodioxol-4-yl]piperidin-1-yl}methyl)-1-{[(2S)-oxetan-2-yl]methyl}-1H-1,3-benzodiazole] showed a negative logarithm of the EC50 (pEC50) of 8.19.

As for `Cc1nnc(-c2cnc3c(c2)nc(CN2CCC(c4cccc5c4OC(C)(c4ccc(Cl)cn4)O5)CC2)n3C[C@@H]2CCO2)[nH]1` (stereo partly drawn) [Compound 269a, 5-chloro-2-[2-methyl-4-(1-{[6-(5-methyl-4H-1,2,4-triazol-3-yl)-3-{[(2S)-oxetan-2-yl]methyl}-3H-imidazo[4,5-b]pyridin-2-yl]methyl}piperidin-4-yl)-2H-1,3-benzodioxol-2-yl]pyridine], the pEC50 was 8.70.

`Fc1cc(Cl)ccc1COc1ncccc1C1CCN(Cc2nc3cc(-c4nnc(C(F)(F)F)[nH]4)ccc3n2C[C@@H]2CCO2)CC1` [Compound 393a, 2-[(4-{2-[(4-chloro-2-fluorophenyl)methoxy]pyridin-3-yl}piperidin-1-yl)methyl]-1-{[(2S)-oxetan-2-yl]methyl}-5-[5-(trifluoromethyl)-4H-1,2,4-triazol-3-yl]-1H-1,3-benzodiazole] showed a pEC50 of 10.20.
